Measurements published in publication PMC8279479, “Application of Alanine Scanning to Determination of Amino Acids Essential for Peptide Adsorption at the Solid/Solution Interface and Binding to the Receptor: Surface-Enhanced Raman/Infrared Spectroscopy versus Bioactivity Assays” (Journal of Medicinal Chemistry, 2021).
Where no end group is shown, it is not given here.

Tests used:
human BB1 receptor = human BB1 receptor (Homo sapiens, UniProt P28336); experiment: Intracellular inositol monophosphate (IP-One HTRF) assay, HEK-293 cells overexpressing BB1 receptor; type: cell-based; conditions: BB1R HEK-293
human BB1 receptor, sequence (P28336 whole entry): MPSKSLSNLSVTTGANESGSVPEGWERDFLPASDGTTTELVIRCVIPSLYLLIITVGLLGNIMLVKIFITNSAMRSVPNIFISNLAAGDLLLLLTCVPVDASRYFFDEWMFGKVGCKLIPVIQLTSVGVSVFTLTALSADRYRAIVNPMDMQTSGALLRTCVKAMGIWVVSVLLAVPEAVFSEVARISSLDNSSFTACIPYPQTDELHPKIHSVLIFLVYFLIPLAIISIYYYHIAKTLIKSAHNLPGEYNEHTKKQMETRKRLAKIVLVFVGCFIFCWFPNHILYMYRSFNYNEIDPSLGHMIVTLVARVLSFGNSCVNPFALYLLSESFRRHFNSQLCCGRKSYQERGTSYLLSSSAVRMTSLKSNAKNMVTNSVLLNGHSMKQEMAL
Protocol: (§1) Additionally, reference compounds BIM23042 and PD176252 (both from Tocris) antagonists of BB1 and BB2 receptors were used in a concentration of 10 μM (Figure 7).
(§2) The human BB1 receptor NM_002511.3 (GenScript) and BB2 receptor NM_002091 (cDNA Resource Center) sequences in pcDNA 3.1 + plasmids were introduced into the host cell by lipofection (Lipofectamine Reagent 3000, Thermo Fisher Scientific). Then, the transfected cells were selected with G-418 antibiotic at a dose of 500 μg/mL. Cells were grown under standard cell culture conditions (37 °C, 5% CO2) in DMEM supplemented with 10% FBS and Glutamax.
(§3) Receptor activity was determined by measuring the intracellular inositol monophosphate concentration using a homogeneous time-resolved fluorescence IP-one kit from Cis-bio, according to the manual. Briefly, 24 h before assay, cells were grown in an FBS-free DMEM medium. Then, the cells were scraped and centrifuged. The cell pellet was suspended in Hanks-HEPES (130 mM NaCl, 5.4 mM KCl, 1.8 mM CaCl2, 0.8 mM MgSO4, 0.9 mM NaH2PO4, 20 mM HEPES, LiCl 50 mM, and 3.25 mM glucose; pH 7.4). […] The cell suspension was then mixed with 5 μL of the IP1-acceptor conjugate and 5 μL of the anti-IP1-donor conjugate. After 1 h incubation at RT, fluorescence was read at 620 and 665 nm (Tecan; Infinite M1000). Results were calculated as the ratio (665 nm/620 nm) multiplied by 10^4. The signal was inversely proportional to the concentration of IP1 in the samples. Each sample was prepared in triplicate. Data were analyzed using GraphPad Prism version 5.04 for Windows (GraphPad software).

human BB2 receptor = human BB2 receptor (Homo sapiens, UniProt P30550); experiment: Intracellular inositol monophosphate (IP-One HTRF) assay, HEK-293 cells overexpressing BB2 receptor; type: cell-based; conditions: BB2R HEK-293
human BB2 receptor, sequence (P30550 whole entry): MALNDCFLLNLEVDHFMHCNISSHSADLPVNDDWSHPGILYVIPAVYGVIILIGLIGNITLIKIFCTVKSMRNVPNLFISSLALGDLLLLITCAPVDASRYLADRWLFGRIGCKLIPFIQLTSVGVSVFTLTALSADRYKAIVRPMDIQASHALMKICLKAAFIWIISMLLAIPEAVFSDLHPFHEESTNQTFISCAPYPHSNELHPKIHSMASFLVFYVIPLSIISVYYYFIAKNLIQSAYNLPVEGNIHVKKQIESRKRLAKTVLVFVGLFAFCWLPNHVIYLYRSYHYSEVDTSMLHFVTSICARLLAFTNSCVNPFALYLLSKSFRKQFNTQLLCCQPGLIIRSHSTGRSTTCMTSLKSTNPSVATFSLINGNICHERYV
Protocol: as §1, §2, §3

| Agonist effect of compound alone on intracellular IP1 (human BB1 receptor; compound alone 25 μM, 1 h, 37 °C (Figure 7A)) | Agonist effect of compound alone on intracellular IP1 (human BB2 receptor; compound alone 25 μM, 1 h, 37 °C (Figure 7B)) | Compound | Effect of reference antagonist alone on basal receptor activity (IP1) (human BB1 receptor; reference compound 10 μM alone (Figure 7A)) | Effect of reference antagonist on IP1 concentration in the presence of agonist (human BB1 receptor; reference compound 10 μM with BN 150 nM (Figure 7A)) | Effect of reference antagonist alone on basal receptor activity (IP1) (human BB2 receptor; reference compound 10 μM alone (Figure 7B)) | Effect of reference antagonist on IP1 concentration in the presence of agonist (human BB2 receptor; reference compound 10 μM with BN 150 nM (Figure 7B)) |
| --- | --- | --- | --- | --- | --- | --- |
|  |  | COc1ccc(C2(CNC(=O)[C@](C)(Cc3c[nH]c4ccccc34)NC(=O)Nc3ccc([N+](=O)[O-])cc3)CCCCC2)nc1 [PD176252] | inhibited the basal activity | downregulated IP1 concentration to control level | inhibited the basal activity | significantly reduced its level |
| little change in the activity | little change in the activity | Asn-Gln-Ala-Ala-Val-Gly-His-Leu-Met-NH2 (NQAAVGHLM-NH2) [[Ala^3]BN^6–14] |  |  |  |  |
